Results as given in US8354106B2, “Antibodies against HMGB1 and fragments thereof” (The Feinstein Institute for Medical Research, priority 2005, dated 2013).
Where no end group is shown, it is not given here. The star is where a group is joined. Biotin = O=C1N[C@H]2[C@H](CS[C@H]2CCCCC(=O)*)N1

Experiments:
[1] = system: human immature monocyte-derived dendritic cells (DCs); assay: Cytokine/chemokine secretion by human immature monocyte-derived dendritic cells (ELISA); format: cell-based; design: key to TNFα secretion / IL-18 secretion / IL-8 secretion / IL-10 secretion / IL-6 secretion / IL-12 secretion: “+” indicates an increase; “−” indicates no change relative to untreated cells (medium); details: for IL-6 secretion / IL-8 secretion / IL-10 secretion / IL-12 secretion / IL-18 secretion / TNFα secretion: HUMAN DC, ELISA 48 h after exposure, relative to untreated cells; for IL-6 secretion / IL-8 secretion / IL-10 secretion / IL-12 secretion / IL-18 secretion / TNFα secretion / secretion of IL-12 (p70) / secretion of TNF-α / secretion of IL-18 / secretion of IL-8 / secretion of IL-6 by DCs: peptides 200 μg/ml; for IL-6 secretion / IL-8 secretion / IL-10 secretion / IL-12 secretion / IL-18 secretion / TNFα secretion / secretion of IL-18 / secretion of IL-8: HMGB1-Bx 50 μg/ml; for cytokine secretion by human DCs / secretion of IL-12 (p70) / secretion of TNF-α / secretion of IL-18 / secretion of IL-8 / secretion of IL-6 by DCs: human DCs; for secretion of IL-12 (p70): FIG. 1C; for secretion of IL-12 (p70) / secretion of TNF-α / secretion of IL-18 / secretion of IL-8 / secretion of IL-6 by DCs: 48 h; for secretion of TNF-α: FIG. 1D; for secretion of IL-18: FIG. 1E; for secretion of IL-8: FIG. 1F; for secretion of IL-6 by DCs: FIGS. 1A, 1B
Method: Peripheral blood mononuclear cells (PBMCs) were isolated from the blood of normal volunteers (Long Island Blood Services, Melville, N.Y.) over a Ficoll-Hypaque (Amersham Biosciences, Uppsala, Sweden) density gradient. CD14^+ monocytes were isolated from PBMCs by positive selection using anti-CD14 beads (Miltenyi Biotech., Auburn, Calif.), following the manufacturer's instructions. To generate DCs, CD14^+ cells were cultured in RPMI 1640 medium supplemented with 2 mM L-glutamine (GIBCO-BRL Life Technologies, Grand Island, N.Y.), 50 μM 2-mercaptoethanol (Sigma, St. Louis, Mo.), 10 mM HEPES (GIBCO-BRL), penicillin (100 U/ml), streptomycin (100 μg/ml) (GIBCO-BRL), and 5% human AB serum (Gemini Bio-Products, Woodland, Calif.). Cultures were maintained for 7 days in 6-well trays (3×10^6 cells/well) supplemented with 1000 U GM-CSF per ml (Immunex, Seattle, Wash.) and 200 U IL-4 per ml (R&D Systems, Minneapolis, Minn.) at days 0, 2, 4 and 6.
(§1) Recombinant HMGB1-B box domain (HMGB1-Bx) was expressed in Escherichia coli and purified as described by Li, et al. (Mol. Med. 9:37-45; J. Immunol. Methods 289:211-223 (2004)). Purified HMGB1-Bx contained trace amounts of LPS (19 pg LPS/μg HMGB1-Bx) as measured by the chromogenic Limulus amebocyte lysate assay (BioWhittacker Inc, Walkersville, Md.). All experiments using HMGB1-Bx, as well as the HMGB1 peptides, were performed in the presence of polymyxin B (200 U/ml) to neutralize the amount of contaminating LPS in the HMGB1-Bx and peptide preparations. We have previously shown that the DC stimulatory capacity of HMGB1-Bx requires an intact tertiary structure and is not due to contaminating amounts of LPS, as trypsinization abolished HMGB1-Bx activity (Messmer, et al., J. Immunol. 173: 307-313 (2004); the entire teachings of which are incorporated herein by reference).
(§2) Secreted cytokine/chemokine levels were measured by ELISA (Pierce Boston Technology Center, SearchLight™ Proteome Arrays Multiplex Sample Testing Services, Woburn, Mass.) 48 h after addition of the various peptides. Polymyxin B (200 U/ml) was added to all cultures, except those containing LPS, before the stimuli were added. Immature monocyte-derived human dendritic cells (DCs) and immature bone-marrow derived murine dendritic cells (BM-DCs) were cultured either in the presence of HMGB1 peptides (200 μg/ml), whose sequences map to different regions of the HMGB1 protein (see Table 1), the entire HMGB1 B-box domain (HMGB1-Bx) (50 μg/ml), or LPS (100 ng/ml). Untreated cells (medium) were tested as a control. Each peptide was named according to the corresponding position of its first amino acid within the full-length HMGB1 sequence. All peptides were N-terminally biotinylated except “Hp-106 (non bio)”.

[2] = system: murine bone marrow-derived dendritic cells (BM-DCs); assay: Cytokine/chemokine secretion by murine bone marrow-derived dendritic cells (ELISA); format: cell-based, mouse; design: key to TNFα secretion / IL-18 secretion / IL-8 secretion / IL-10 secretion / IL-2 secretion / IL-1β secretion / IL-5 secretion / IL-6 secretion / IL-12 secretion: “+” indicates an increase; “−” indicates no change relative to untreated cells (medium); details: for secretion of IL-1β: FIG. 2A; for secretion of IL-2: FIG. 2C; for secretion of IL-5: FIG. 2E; for secretion of IL-12 (p70): FIGS. 2B, 2H
Method: Bone marrow-derived DCs (BM-DCs) were generated using modifications of the original method described by Inaba, et al. (J. Exp. Med. 1 76:1693-1702 (1992)). In brief, bone marrow suspensions were incubated with red cell lysis buffer (PUREGENE™ RBC Lysis Solution, Gentra Systems, Minneapolis, Minn.) to remove red blood cells. After washing in media, lymphocytes and Ia-positive cells were killed with a cocktail of monoclonal antibodies (mAbs) and rabbit complement for 60 min at 37° C. The mAbs that were used were GK1.5 anti-CD4, TIB211 anti-CD8, TIB 120 anti-Ia, and TIB 146 anti B220 (these mAbs were kindly provided by Dr. Ralph Steinman). The cells were subsequently cultured in media containing 5% FCS and 10 ng/ml recombinant mouse GM-CSF (R&D Systems, Minneapolis, Minn.) for 7 days. For some experiments, the cells were further purified at day 7 using CD11c^+-microbeads (Miltenyi Biotech., Auburn, Calif.), according to the manufacturer's instructions.
as §1, §2

[3] = system: allogeneic T cells co-cultured with BM-DCs; assay: Functional maturation of BM-DCs: allogeneic T cell proliferation in mixed lymphocyte reaction (3H-thymidine); format: cell-based, mouse; details: BM-DCs from C57/BL6 mice exposed 48 h; peptide 200 μg/ml, HMGB1-Bx 50 μg/ml; DC:T cell ratio 1:120, 5 days; FIG. 4A
Method: Immature BM-DCs that were generated from C57/BL6 mice (FIG. 4A) or Balb/c mice (FIG. 4B) were incubated for 48 h with either HMGB1-Bx (50 μg/ml), a particular HMGB1 peptide (200 μg/ml), LPS (100 ng/ml) or were left untreated (medium). T cells were isolated by negative selection using the mouse SpinSep antibody cocktail from StemCell Technologies (Vancouver, Calif.), according to the manufacturer's instructions. The cell purity of the isolated T cells was routinely ˜99% pure. In order to assess levels of T cell activation and proliferation, cells were plated at 10^5 cells per well in a round-bottomed 96-well tray at a DC:T cell ratio of 1:120 for 5 days in the medium described above. The microcultures were pulsed with (^3H)-thymidine ([…]) for the final 8 h of culture. Cell cultures were harvested onto glass fiber filters with an automated multiple sample harvester and the amount of isotope incorporation was determined by liquid scintillation β-emission. Responses are reported as mean cpm of thymidine incorporation by triplicate cultures (±SEM).

[4] = MURINE DC, ELISA 48 h after exposure, peptides 200 μg/ml, HMGB1-Bx 50 μg/ml, relative to untreated cells
[5] = murine BM-DCs, peptides 200 μg/ml, HMGB1-Bx 50 μg/ml, 48 h

Row | Sequence | IL-6 secretion [1] | IL-8 secretion [1] | IL-10 secretion [1] | IL-12 secretion [1] | IL-18 secretion [1] | TNFα secretion [1] | cytokine secretion by human DCs [1] | secretion of IL-12 (p70) [1] | secretion of TNF-α [1] | secretion of IL-18 [1] | secretion of IL-8 [1] | secretion of IL-6 by DCs [1] | IL-1β secretion [2, 4] | IL-2 secretion [2, 4] | IL-5 secretion [2, 4] | IL-6 secretion [2, 4] | IL-10 secretion [2, 4] | IL-12 secretion [2, 4] | cytokine secretion by murine BM-DCs ([2]; murine BM-DCs) | secretion of IL-1β [2, 5] | also measured
1 | HPDASVNFSEFSKKCSER (Biotin-HPDASVNFSEFSKKCSER; listed as Homo sapiens) [Hp-31] | + | − | − | + | + | + | induced cytokine secretion by human DCs | induced secretion | induced secretion | induced secretion | did not induce secretion | induced secretion | + | + | + | − | − | + | induced cytokine secretion by murine BM-DCs | enhanced the production | secretion of IL-6 ([2]; murine BM-DCs): not; secretion of IL-10 ([2]; murine BM-DCs): not; secretion of IL-2 [2, 5]: enhanced the production; secretion of IL-5 [2, 5]: enhanced the production; secretion of IL-12 (p70) [2, 5]: enhanced the production
2 | SERWKTMSAKEKGKFEDM (Biotin-SERWKTMSAKEKGKFEDM; listed as Homo sapiens) [Hp-46] |  |  |  |  |  |  |  |  |  |  |  | did not induce IL-6 secretion |  |  |  |  |  |  |  |  | proliferation of resting allogeneic T cells (3H thymidine incorporation) [3]: did not show enhanced T cell stimulatory activity
3 | DPNAPKRPPSAFFLFCSE (Biotin-DPNAPKRPPSAFFLFCSE; listed as Homo sapiens) [Hp-91] | + | − | − | + | + | + | induced cytokine secretion by human DCs | induced secretion | induced secretion | induced secretion | did not induce secretion | enhanced IL-6 secretion | + | + | + | − | − | + | induced cytokine secretion by murine BM-DCs | increased production | IL-8 secretion [2, 4]: −; IL-18 secretion [2, 4]: −; TNFα secretion [2, 4]: −; secretion of IL-2 [2, 5]: increased production; secretion of IL-8 ([2]; murine BM-DCs, FIG. 2D, peptides 200 μg/ml, HMGB1-Bx 50 μg/ml, 48 h): not; secretion of IL-5 [2, 5]: increased production; secretion of IL-18 ([2]; murine BM-DCs, FIG. 2F, peptides 200 μg/ml, HMGB1-Bx 50 μg/ml, 48 h): not; secretion of TNF-α ([2]; murine BM-DCs, FIG. 2G, peptides 200 μg/ml, HMGB1-Bx 50 μg/ml, 48 h): not
4 | CSEYRPKIKGEHPGLSIG [Hp-106 (non bio), Hp-106 peptide that was not biotinylated at its N-terminus] |  |  |  |  |  |  |  |  |  |  |  | failed to stimulate IL-6 secretion |  |  |  |  |  |  |  |  | secretion of IL-12 (p70) [2, 5]: did not enhance IL-12 secretion
